Activity calls are given as the source filed them.

Test [1] can be described thus: M. tuberculosis H37Rv growth inhibitors, H37Rv strain (AID 1626). The class given is functional.
The target in test [2] is T1, Mitochondrial peptide methionine sulfoxide reductase (Bos taurus, UniProt P54149).
T1 sequence (P54149 whole entry): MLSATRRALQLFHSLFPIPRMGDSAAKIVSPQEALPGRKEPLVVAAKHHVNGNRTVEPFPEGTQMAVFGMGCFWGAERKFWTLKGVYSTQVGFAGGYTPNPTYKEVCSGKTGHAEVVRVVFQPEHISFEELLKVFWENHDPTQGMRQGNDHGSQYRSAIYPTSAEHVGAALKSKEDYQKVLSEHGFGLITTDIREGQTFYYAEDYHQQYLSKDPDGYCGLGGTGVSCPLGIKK
In words: Absorbance-based biochemical high throughput dose response assay for activators of Methionine sulfoxide reductase A (MsrA). The class given is functional.

Test [3] deals with Ras and Rab interactor 1/Tyrosine-protein kinase ABL1 (Homo sapiens, UniProt P00519+Q13671). It counts as functional.
Test [4] deals with Voltage-gated inwardly rectifying potassium channel KCNH2 (Homo sapiens, UniProt Q12809). The conditions noted are these: Potency.
Test [5] addresses T2, Sentrin-specific protease 6 (Homo sapiens, UniProt Q9GZR1).
T2 sequence (Q9GZR1 whole entry): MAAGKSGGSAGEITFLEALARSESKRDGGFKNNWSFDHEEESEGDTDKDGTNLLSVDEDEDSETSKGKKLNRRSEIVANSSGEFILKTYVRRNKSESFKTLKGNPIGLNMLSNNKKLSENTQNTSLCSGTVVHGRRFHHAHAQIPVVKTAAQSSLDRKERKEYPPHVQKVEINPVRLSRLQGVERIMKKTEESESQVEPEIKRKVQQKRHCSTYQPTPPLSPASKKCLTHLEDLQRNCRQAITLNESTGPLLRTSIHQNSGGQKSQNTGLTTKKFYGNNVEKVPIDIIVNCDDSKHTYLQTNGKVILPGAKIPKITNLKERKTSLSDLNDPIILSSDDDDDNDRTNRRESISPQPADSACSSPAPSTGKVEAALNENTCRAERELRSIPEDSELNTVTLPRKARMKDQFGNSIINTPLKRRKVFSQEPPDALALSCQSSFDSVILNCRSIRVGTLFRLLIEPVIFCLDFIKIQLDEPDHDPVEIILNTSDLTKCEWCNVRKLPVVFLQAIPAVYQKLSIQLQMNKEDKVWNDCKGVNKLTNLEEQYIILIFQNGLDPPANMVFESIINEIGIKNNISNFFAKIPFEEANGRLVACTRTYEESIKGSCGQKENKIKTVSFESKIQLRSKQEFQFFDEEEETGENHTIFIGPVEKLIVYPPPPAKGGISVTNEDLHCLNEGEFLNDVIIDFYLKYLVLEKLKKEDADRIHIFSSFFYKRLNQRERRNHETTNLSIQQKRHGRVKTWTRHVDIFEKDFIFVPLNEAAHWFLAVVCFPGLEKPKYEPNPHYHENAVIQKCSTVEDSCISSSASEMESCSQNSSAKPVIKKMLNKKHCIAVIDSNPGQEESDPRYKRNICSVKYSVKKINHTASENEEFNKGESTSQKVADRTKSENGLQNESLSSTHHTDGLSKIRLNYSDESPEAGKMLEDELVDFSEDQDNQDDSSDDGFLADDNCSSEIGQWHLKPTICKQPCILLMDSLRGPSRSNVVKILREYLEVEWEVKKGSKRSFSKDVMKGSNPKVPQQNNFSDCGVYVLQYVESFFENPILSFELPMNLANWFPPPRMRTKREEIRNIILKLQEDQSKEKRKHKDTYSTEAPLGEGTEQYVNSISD
As to the kind of experiment: SAR Analysis of small molecule inhibitors of Sentrin-specific protease 6 (SENP6) using a Luminescent assay. [Related pubchem assays (depositor defined):AID2582, AID2599]. The class given is functional.

The target of test [6] is T3, Sentrin-specific protease 7 (Homo sapiens, UniProt Q9BQF6).
T3 sequence (Q9BQF6 whole entry): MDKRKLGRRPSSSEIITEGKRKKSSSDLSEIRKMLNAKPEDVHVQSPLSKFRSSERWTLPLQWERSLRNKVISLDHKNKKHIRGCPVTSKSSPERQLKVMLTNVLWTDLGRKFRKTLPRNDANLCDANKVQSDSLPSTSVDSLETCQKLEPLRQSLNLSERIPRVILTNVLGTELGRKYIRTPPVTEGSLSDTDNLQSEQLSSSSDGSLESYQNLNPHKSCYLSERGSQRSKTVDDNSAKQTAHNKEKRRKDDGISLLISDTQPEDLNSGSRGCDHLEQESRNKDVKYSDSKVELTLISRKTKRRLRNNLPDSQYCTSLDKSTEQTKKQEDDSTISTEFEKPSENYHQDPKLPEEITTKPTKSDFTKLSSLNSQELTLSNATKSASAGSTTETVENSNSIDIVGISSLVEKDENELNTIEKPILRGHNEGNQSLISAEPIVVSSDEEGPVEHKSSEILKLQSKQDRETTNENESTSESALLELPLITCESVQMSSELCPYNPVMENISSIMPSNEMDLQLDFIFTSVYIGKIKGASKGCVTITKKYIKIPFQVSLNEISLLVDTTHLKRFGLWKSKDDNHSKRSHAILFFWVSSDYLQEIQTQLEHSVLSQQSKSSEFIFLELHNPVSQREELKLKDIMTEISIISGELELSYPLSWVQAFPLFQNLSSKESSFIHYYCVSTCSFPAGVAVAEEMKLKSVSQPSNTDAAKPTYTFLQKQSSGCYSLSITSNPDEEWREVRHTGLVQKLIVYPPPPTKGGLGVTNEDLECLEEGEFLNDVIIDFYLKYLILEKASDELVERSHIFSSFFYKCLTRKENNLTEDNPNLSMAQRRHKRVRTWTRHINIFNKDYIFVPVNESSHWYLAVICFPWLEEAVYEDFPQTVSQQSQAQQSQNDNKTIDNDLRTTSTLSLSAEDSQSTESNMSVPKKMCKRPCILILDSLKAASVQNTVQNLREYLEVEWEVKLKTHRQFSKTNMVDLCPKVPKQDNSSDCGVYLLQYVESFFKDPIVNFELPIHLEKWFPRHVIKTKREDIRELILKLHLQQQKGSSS
In words: SENP7 protease inhibitors, SAR follow-up, biochemical, luminescence (AID 504497). It counts as functional.

In test [7] the target is T4, Sentrin-specific protease 8 (Homo sapiens, UniProt Q96LD8).
T4 sequence (Q96LD8 whole entry): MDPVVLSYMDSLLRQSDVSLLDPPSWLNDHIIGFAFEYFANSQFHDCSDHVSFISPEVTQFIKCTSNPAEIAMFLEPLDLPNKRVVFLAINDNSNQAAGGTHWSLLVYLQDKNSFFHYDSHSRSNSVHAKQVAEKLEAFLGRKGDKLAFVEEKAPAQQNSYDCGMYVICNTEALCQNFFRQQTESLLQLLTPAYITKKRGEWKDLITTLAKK
In words: SENP8 protease inhibitors, SAR follow-up, biochemical, luminescence (AID 504501). The class given is functional.

Test [8] has as its target T5, Caspase-3 (Homo sapiens, UniProt P42574).
T5 sequence (P42574 whole entry): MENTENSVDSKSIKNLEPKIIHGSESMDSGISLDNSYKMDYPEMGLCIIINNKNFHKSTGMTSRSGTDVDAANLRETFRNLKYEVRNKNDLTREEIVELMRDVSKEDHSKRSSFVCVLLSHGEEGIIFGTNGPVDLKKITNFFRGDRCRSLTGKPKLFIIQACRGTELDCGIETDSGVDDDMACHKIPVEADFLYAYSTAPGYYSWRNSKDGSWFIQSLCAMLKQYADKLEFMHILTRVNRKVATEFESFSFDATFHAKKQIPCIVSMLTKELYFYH
As to the kind of experiment: SAR Analysis of small molecule inhibitors of Sentrin-specific proteases (SENPs) using a Caspase-3 Selectivity assay. [Related pubchem assays (depositor defined):AID2540, AID2599, AID434973, AID489001]. It counts as functional.

Test [9] addresses T4, Sentrin-specific protease 8. In words: SENP8 protease inhibitors, SAR follow-up, biochemical, luminescence, set 2 (AID 588601). The class given is functional.
Test [10] concerns the target T3, Sentrin-specific protease 7. As to the kind of experiment: SENP7 protease inhibitors, SAR follow-up, biochemical, luminescence, set 2 (AID 588600). It counts as functional.
The target in test [11] is T2, Sentrin-specific protease 6. In words: SENP6 protease inhibitors, SAR follow-up, biochemical, luminescence, set 2 (AID 588598). It counts as functional.
The target in test [12] is T5, Caspase-3. As to the kind of experiment: caspase-3 inhibitors as off-family protease, SAR follow-up, selectivity assay for SENP protease inhibitor project, biochemical, luminescence, set 2 (AID 588599). The class given is functional.
Test [13] concerns the target Cytochrome P450 3A4 (Homo sapiens, UniProt P08684). The note with it: Potency.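 Also: confirmatory qHTS run detecting inhibitors and substrates of CYP3A4.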
Test [14] deals with T6, Apoptotic protease-activating factor 1 (Homo sapiens, UniProt O14727).
T6 sequence (O14727 whole entry): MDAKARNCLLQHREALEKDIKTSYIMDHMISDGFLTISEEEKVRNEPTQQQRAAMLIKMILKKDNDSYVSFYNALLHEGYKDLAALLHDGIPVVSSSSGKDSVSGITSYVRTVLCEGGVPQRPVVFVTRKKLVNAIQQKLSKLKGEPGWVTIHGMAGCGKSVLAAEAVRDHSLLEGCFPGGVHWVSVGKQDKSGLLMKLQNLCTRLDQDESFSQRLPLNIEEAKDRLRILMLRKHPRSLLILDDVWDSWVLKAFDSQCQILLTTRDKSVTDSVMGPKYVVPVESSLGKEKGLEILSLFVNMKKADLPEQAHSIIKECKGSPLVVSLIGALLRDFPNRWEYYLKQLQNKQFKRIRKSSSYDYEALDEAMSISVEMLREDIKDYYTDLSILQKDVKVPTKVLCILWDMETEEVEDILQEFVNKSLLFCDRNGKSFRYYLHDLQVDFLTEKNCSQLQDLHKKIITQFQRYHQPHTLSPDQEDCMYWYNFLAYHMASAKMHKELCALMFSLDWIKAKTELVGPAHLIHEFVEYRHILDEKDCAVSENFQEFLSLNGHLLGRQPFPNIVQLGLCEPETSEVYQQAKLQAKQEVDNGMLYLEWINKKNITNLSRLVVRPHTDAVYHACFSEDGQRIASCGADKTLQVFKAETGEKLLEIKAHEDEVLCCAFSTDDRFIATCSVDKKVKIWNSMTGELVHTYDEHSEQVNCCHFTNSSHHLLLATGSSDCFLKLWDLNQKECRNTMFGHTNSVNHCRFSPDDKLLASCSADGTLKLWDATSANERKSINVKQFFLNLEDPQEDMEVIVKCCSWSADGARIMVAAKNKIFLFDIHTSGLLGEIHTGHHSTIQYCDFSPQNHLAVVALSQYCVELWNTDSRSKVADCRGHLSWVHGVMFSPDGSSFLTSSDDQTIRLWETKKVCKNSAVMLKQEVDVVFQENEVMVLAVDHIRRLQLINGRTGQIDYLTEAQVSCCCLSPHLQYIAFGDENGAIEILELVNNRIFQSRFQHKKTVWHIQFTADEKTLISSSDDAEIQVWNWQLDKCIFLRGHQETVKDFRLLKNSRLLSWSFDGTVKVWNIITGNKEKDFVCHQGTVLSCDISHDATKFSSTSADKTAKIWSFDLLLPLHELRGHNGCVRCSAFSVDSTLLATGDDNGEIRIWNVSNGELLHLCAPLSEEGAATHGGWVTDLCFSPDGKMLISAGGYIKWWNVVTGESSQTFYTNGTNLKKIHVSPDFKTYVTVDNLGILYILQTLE
As to the kind of experiment: SAR analysis of small molecule Activators of Apaf-1 in a Fluorescent assay. It counts as functional. The note with it: read-out: EC50_Mean.

Test [15] addresses T7, Aurora kinase A (Homo sapiens, UniProt O14965).
T7 sequence (O14965 whole entry): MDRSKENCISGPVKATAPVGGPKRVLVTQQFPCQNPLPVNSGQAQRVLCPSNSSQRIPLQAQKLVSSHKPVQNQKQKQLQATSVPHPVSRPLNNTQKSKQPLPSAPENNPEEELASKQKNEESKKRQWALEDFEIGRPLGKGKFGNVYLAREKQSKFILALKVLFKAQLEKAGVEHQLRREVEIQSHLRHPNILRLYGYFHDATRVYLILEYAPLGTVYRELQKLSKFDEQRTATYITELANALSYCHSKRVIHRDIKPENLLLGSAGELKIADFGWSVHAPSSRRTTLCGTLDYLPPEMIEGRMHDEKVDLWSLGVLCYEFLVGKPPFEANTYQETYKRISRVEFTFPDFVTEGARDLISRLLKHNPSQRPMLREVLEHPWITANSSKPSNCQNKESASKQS
The class given is functional.

Test [16] concerns the target Aurora kinase B (Homo sapiens, UniProt Q96GD4). The class given is functional.
In test [17] the target is Vascular endothelial growth factor receptor 2 (Homo sapiens, UniProt P35968). The class given is functional.
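For EC50 Mean in this document: caspase-3 cleavage of fluorogenic Rh110 DEVD substrate downstream of apoptosome activation.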

Voltage-gated inwardly rectifying potassium channel KCNH2, sequence (Q12809 whole entry): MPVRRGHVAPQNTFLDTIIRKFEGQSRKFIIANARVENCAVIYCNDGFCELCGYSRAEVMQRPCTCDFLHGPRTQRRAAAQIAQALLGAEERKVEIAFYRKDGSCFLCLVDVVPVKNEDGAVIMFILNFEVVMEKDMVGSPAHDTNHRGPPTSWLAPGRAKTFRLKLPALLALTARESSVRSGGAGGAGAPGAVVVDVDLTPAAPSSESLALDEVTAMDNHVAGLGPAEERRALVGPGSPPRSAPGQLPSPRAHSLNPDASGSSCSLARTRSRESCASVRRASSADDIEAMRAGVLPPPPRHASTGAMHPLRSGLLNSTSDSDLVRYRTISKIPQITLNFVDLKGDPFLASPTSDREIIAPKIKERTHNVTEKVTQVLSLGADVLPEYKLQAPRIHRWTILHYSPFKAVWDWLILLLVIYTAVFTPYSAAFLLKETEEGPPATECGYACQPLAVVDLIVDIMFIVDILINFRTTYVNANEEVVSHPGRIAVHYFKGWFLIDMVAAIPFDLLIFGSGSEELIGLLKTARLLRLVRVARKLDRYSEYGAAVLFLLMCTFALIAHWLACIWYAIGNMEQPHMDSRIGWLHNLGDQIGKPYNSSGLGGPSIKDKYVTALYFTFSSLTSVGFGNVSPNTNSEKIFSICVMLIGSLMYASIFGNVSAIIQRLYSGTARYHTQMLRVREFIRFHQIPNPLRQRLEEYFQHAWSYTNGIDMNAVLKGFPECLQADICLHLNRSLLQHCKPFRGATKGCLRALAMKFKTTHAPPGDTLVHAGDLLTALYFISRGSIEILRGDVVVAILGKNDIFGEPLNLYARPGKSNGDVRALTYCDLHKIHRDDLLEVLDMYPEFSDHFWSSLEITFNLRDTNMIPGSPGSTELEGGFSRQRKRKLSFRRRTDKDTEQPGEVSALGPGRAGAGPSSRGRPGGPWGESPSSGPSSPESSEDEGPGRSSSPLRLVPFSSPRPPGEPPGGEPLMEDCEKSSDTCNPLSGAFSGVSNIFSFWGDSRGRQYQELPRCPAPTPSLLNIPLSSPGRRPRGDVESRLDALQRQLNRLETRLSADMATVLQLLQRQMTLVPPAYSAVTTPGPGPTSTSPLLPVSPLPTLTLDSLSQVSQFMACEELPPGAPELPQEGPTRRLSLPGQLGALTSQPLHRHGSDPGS
Cytochrome P450 3A4, sequence (P08684 whole entry): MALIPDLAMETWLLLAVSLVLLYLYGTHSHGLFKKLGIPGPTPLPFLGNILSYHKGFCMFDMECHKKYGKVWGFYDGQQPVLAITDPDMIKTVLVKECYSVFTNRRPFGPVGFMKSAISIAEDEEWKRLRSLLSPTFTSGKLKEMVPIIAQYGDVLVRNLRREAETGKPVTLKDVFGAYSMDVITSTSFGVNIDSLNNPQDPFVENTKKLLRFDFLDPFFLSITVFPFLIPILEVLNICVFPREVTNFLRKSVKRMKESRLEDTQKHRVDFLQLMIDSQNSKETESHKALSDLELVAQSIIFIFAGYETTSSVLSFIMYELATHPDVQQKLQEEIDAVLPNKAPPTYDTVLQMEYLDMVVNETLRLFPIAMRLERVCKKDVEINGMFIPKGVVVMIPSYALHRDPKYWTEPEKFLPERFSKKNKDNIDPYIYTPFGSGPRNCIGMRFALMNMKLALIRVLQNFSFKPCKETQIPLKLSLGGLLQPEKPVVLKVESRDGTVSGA
Vascular endothelial growth factor receptor 2, sequence (P35968 whole entry): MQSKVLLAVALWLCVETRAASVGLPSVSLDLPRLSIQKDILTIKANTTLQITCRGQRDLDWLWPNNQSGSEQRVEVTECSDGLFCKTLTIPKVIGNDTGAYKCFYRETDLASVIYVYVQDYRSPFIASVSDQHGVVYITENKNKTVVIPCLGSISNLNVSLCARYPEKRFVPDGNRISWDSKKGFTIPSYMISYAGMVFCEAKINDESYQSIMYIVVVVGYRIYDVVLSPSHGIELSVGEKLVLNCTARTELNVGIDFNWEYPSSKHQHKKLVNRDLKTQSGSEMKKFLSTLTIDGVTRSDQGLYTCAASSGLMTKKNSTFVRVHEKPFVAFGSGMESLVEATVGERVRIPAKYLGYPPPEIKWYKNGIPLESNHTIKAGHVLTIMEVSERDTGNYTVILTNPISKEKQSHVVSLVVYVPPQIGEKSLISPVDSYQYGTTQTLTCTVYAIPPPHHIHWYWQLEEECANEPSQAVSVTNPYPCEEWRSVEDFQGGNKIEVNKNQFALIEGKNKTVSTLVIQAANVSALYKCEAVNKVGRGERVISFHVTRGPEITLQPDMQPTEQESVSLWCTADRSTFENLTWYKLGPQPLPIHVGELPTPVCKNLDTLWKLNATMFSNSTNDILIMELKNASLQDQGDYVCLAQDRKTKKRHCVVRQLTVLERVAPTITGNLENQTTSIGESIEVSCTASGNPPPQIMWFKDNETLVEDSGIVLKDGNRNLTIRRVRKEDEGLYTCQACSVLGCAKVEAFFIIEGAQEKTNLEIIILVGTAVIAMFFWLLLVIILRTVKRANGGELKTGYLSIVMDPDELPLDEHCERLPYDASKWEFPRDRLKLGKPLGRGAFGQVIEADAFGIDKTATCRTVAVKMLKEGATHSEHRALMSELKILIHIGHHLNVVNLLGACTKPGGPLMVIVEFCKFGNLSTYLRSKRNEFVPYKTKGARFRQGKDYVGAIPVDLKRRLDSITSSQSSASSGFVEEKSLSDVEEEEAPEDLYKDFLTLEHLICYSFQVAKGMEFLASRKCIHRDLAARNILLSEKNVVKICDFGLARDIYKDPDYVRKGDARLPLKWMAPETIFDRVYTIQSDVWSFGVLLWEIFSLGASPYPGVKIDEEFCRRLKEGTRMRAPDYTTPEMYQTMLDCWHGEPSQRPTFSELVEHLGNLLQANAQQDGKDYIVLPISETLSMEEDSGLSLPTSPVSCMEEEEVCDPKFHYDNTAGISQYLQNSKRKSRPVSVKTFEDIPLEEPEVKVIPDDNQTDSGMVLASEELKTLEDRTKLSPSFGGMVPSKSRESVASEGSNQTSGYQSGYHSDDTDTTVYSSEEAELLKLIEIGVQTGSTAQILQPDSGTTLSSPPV
Aurora kinase B, sequence (Q96GD4 whole entry): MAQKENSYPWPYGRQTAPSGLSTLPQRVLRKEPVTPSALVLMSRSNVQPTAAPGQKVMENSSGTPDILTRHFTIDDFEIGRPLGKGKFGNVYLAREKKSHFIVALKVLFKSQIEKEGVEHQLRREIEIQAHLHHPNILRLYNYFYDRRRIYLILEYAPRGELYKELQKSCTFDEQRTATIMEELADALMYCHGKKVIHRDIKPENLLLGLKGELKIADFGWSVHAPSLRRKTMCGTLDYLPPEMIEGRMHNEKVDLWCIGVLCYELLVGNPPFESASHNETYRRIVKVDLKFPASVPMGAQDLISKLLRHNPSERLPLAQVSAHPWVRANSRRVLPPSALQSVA

Regarding `CCOc1ccc(NC(C(=O)Nc2cccc(C(C)=O)c2)c2ccccc2)cc1` (stereo unspecified), the IC50 in test [1] is > 100 µM (active). The EC50 in test [2] is > 104 µM (inactive).
Regarding `CCC(C)(C)n1nnnc1C(c1cccnc1)N1CCCc2ccccc21` (stereo unspecified), in test [3], the IC50 is 6.9 µM (active).
`O=[N+]([O-])c1cc([N+](=O)[O-])c2ccccc2c1`: the AC50 in [4] was 15.8 µM (inconclusive).
For `CN(C)S(=O)(=O)c1ccc2nc(NC(=O)c3c(F)cccc3F)sc2c1`, the IC50 in test [5], in [6], in test [7] and in [8] was > 99 µM (inactive) each time.
Consider `O=C(Nc1nc2ccc(Cl)cc2s1)c1sccc1Cl`, for which the IC50 in test [9] is 9.04 µM (active); in test [5] it was 0.78 µM (active); in [6], 0.91 µM (active); in test [10], 6.06 µM (active); in test [7], 0.77 µM (active); in test [11], 15.4 µM (active). Besides, the concentration for half-maximal inhibition (IC50) is 0.755 µM (active) in test [12] and 0.73 µM (active) in test [8].
As for `O=C(N/N=C\c1c[nH]c2ccccc12)c1cccs1`, the IC50 in test [9] is 40.8 µM (active); in [10] it was 34.4 µM (active); in test [11], 43.3 µM (active); in test [12], 75.5 µM (active).
For `CC(C)(c1ccccc1)c1ccc(O)cc1`, the AC50 is 20 µM (inconclusive) in test [13] and 28.2 µM (inconclusive) in test [4].
Take `COc1cc(N2CC(C(=O)O)CC2=O)c(OC)cc1Cl` (stereo unspecified): the EC50 in [14] was > 100 µM (inactive).
Consider `CCCS(=O)(=O)Nc1ccc2c(c1)C(=NO)c1ccccc1-2`, for which the Ki in [15] was 2 µM (active); in test [16], 0.01 µM (active); in [17], 1 µM (active).

(Values after ChEMBL document CHEMBL1201862, “PubChem BioAssay data set” (2004).)
